Laboratory results as given in article PMC3715890, “A Cyclic Peptide Inhibitor of HIF-1 Heterodimerization That Inhibits Hypoxia Signaling in Cancer Cells” (Journal of the American Chemical Society, 2013).
Entries after “also recorded” stand apart in the source; their conditions may differ.

Key:
U2OS cells = details: 100 μM, hypoxia 24 h
MCF-7 cells [1] = experiment: CyQUANT cell proliferation assay, MCF-7; type: cell-based; details: 100 μM, 72 h
Description: Sulforhodamine B cytotoxicity assay […]
incubated in hypoxia for 24h.
O.D. value of the experimental set.
CyQUANT cell proliferation assay
The cells were incubated for 5 hours and then treated with Tamoxifen or P1. After 24, 48 or 72 hours, the media was […]
C35006) following the manufacturers instructions. Fluorescence measurements were […]
Workman, P.; Ashcroft, M. Cancer Res 2005, 65, 4918.

[2] = molecular target: T1, His-HIF-1α1–350 with GST-HIF-1β1–474 (Homo sapiens, UniProt Q16665); experiment: ELISA of HIF-1 dimerization; type: biochemical; details: 10 nM to 500 μM, pH 7.5, 30 min preincubation, room temperature, absorbance 450 nm, read-out: IC50, disruption of HIF-1 dimerization
T1 construct: heterodimerization of His-HIF-1α1–350 with GST-HIF-1β1–474 analyzed by ELISA; made in house; host or cells: E. coli BL21(DE3)
Description: We next probed the effect of cyclo-CLLFVY on the interaction of HIF-1α with HIF-1β in vitro. […] Unfortunately, the positively charged Tat-tag of P1 is incompatible with EMSA (interferes with the bandshift of DNA). […] To determine the HIF-1-specificity of cyclo-CLLFVY, we assessed its ability to disrupt HIF-2 dimerization by ELISA. Recombinant His-HIF-2α1–351 was produced and purified, and shown to form functional heterodimers with GST-HIF-1β1–474 by EMSA (Figure S5B).
HIF-1β1-474, *please note that isoform 3 of HIF-1β was used). The standard protocol for protein expression was followed. Briefly, a 1 % culture in LB was incubated at 37 °C with shaking until OD600 of 0.6 was reached. 0.1 mM IPTG was added and the liquid culture incubated with shaking at 18 °C overnight. Cell pellets were suspended in MHW buffer9 (approximately 4 ml buffer per 1 g cell pellet). Lysozyme (100 µg/ml) was added to the lysate and the solution was incubated with shaking for 20 min at 5 °C. […]
glycerol) was added to individual wells of a Pierce Ni2+-coated 96-well plate (Thermo Scientific, catalogue no. […] The stated quantity of inhibitor (P1 or P2) was added as a solution in 100 µL of buffer to the desired wells, and the plate incubated at room temperature for 30 minutes. […]

MCF-7 cells [3] = details: MCF-7, 100 μM, hypoxia 24 h
HIF-2 = details: cited from earlier work
Description: (§1) Inhibition of HIF-1 has long been known to hold much potential for cancer therapy;[14] there are multiple possible points for therapeutic intervention in the hypoxia response network, and molecules that inhibit various components of this diverse pathway have been reported,[15]−[22] but the absolute requirement for the dimerization of HIF-1α and HIF-1β for DNA binding and transcription activity of the HIF-1 complex makes this protein–protein interaction a seemingly optimal point of interception. Several high-throughput screens have been conducted in the effort to identify HIF-1 inhibitors,[15], ...

HIF-1 = details: cited from earlier work
Description: as §1

PAS-B domain of HIF-1α = molecular target: T2, PAS-B domain of HIF-1α (Homo sapiens, UniProt Q16665); details: cited from earlier work
T2 construct: Per-ARNT-Sim-B (PAS-B, amino acids 235–350) domains; His (N); made in house; host or cells: E. coli BL21(DE3)
Description: (§2) A homology model of HIF-1α PAS-B mapped onto the NMR s ...

HIF-2α PAS-B = details: cited from earlier work
Description: as §2

Compound | SRB cytotoxicity (U2OS cells) | viability / proliferation of MCF-7 cells (MCF-7 cells [1]) | IC50 [2] [nM] | SRB cytotoxicity (MCF-7 cells [3]) | inhibition of HIF-2 (HIF-2) | inhibition of HIF-1 (HIF-1) | targeting of PAS-B domain of HIF-1α (PAS-B domain of HIF-1α) | targeting of PAS-B domain of HIF-2α (HIF-2α PAS-B)
CC(C)C[C@@H]1NC(=O)[C@H](CSSC[C@H](N)C(=O)NCC(=O)N[C@@H](CCCNC(=N)N)C(=O)N[C@@H](CCCCN)C(=O)N[C@@H](CCCCN)C(=O)N[C@@H](CCCNC(=N)N)C(=O)N[C@@H](CCCNC(=N)N)C(=O)N[C@@H](CCC(N)=O)C(=O)N[C@@H](CCCNC(=N)N)C(=O)N[C@@H](CCCNC(=N)N)C(=O)N[C@@H](CCCNC(=N)N)C(=O)N2CCC[C@H]2C(=O)N2CCC[C@H]2C(=O)N[C@@H](CCC(N)=O)C(=O)O)NC(=O)[C@H](Cc2ccc(O)cc2)NC(=O)[C@H](C(C)C)NC(=O)[C@H](Cc2ccccc2)NC(=O)[C@H](CC(C)C)NC1=O [P1, Tat-cyclo-CLLFVY] | not cytotoxic | did not affect the viability of MCF-7 cells; also recorded: no effect on MCF-7 proliferation | 1300 | not cytotoxic |  |  |  | 
acriflavine |  |  |  |  | nonselectively inhibits both HIF-1 and HIF-2 | nonselectively inhibits both HIF-1 and HIF-2 | targeted | targeted
